The source made the active and inactive calls. No stated cut-off is given here; in the data, active = IC50 of 20 µM or less and inactive = more.
Biological target: T1, Type-1 angiotensin II receptor (Homo sapiens, UniProt P30556)
T1 sequence (P30556 whole entry): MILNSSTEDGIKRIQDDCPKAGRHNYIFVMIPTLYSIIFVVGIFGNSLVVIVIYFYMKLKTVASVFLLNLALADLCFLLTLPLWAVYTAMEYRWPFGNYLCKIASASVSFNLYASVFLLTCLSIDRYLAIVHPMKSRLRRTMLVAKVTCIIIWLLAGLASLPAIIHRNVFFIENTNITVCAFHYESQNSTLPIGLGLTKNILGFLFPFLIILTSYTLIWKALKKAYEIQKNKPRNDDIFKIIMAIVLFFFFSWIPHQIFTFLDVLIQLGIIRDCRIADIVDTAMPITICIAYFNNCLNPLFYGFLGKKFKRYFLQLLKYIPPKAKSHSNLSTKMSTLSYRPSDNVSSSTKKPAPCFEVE
Experiment: antagonism of angiotensin II type 1 receptor – cell-based, uHTS hits, selectivity assay for APJ receptor antagonist project, dose response (AID 463214);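 further: antagonist potency against angiotensin II stimulated AT1 response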
Assay type: functional

SMILES: Cc1ccc(Nc2cc(C)nn2-c2nc(C)cc(O)n2)cc1
- IC50: 1770 nM (active)
